Structures are written as SMILES.

The target of one test is T1, human β3-adrenergic receptor (Homo sapiens, UniProt P13945).
T1 construct: expressed in transfected cells
T1 sequence (P13945 whole entry): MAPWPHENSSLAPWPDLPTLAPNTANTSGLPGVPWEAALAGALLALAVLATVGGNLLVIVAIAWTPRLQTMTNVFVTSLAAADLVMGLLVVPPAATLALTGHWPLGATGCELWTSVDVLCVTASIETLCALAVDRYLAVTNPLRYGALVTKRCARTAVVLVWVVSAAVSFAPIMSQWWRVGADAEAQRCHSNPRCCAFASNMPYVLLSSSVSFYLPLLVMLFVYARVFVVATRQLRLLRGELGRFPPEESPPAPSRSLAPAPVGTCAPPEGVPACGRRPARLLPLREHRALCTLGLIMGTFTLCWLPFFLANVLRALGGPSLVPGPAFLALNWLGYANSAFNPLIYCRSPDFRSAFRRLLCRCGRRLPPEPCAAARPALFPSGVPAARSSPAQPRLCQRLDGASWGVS
Nature of the test: cAMP levels in CHO-K1 cells expressing the human β3-adrenergic receptor. Type of test: cell-based. As to conditions: 10 μM, 15 min. How it is done: CHO-K1 cells stably expressing the human β3-adrenergic receptors were serum-starved overnight and stimulated with an agonist, final concentration 1×10^−5 M, for 15 min in stimulation buffer (HBSS supplemented with 1% BSA, 5 mM HEPES and 1 mM IBMX, pH 7.4) The medium was then aspirated and to end the reaction, 100 μL of 95% EtOH was added to each well of the 24-well plate and cells were kept at −20° C. overnight. The next day EtOH was allowed to evaporate and 250 μL of lysis buffer (1% BSA, 5 mM HEPES and 0.3% Tween-20, pH 7.4) was added to each well. The plate was kept at −80° C. for 30 min and thawed in room temperature. Intracellular cAMP levels were detected using an alpha screen cAMP kit (6760635D from Perkin Elmer). The activity for each compound is compared to that of isoproterenol.
A general note: cAMP levels reflect the balance of adenylyl cyclase and phosphodiesterase activity.
With `CC(C)(C[C@H]1CC[C@H](NS(C)(=O)=O)CC1)NC[C@H](O)c1cccc(F)c1` [Compound 45, N-((trans)-4-(2-(((R)-2-(3-fluorophenyl)-2-hydroxy-ethyl)amino)-2-methyl-propyl)cyclohexyl)methane-sulfonamide], the “Activity (intracellular cAMP compared to that of isoproterenol)” value is “++ (activity of more than 75% of that of isoproterenol at 10 μM)”.
Turning to `CCS(=O)(=O)N[C@H]1CC[C@@H](CC(C)(C)NC[C@H](O)c2cncc(F)c2)CC1` [Compound 18, N-((cis)-4-(2-(((R)-2-(5-fluoropyridin-3-yl)-2-hydroxyethyl)amino)-2-methylpropyl)cyclo-hexyl)ethanesulfonamide], the “Activity (intracellular cAMP compared to that of isoproterenol)” value is recorded as “+ +”.

Staying with this test, now noted: CHO-K1, 0.25 h, 15 min, read-out: Activity (intracellular cAMP compared to that of isoproterenol).
Consider `CO[C@H]1CC[C@@H](CC(C)(C)NC[C@H](O)c2ccc(F)c(N)c2F)CC1` [Compound 36, (R)-1-(3-amino-2,4-difluoro-phenyl)-2-((1-((cis)-4-methoxycyclohexyl)-2-methylpropan-2-yl)amino)-ethan-1-ol], for which the Emax at 10 µM is greater than 75%.
For the compound `O[C@H](c1cccc(F)c1)[C@H]1CCC2(CCCC2)N1` [Compound 56, (R)-(3-fluorophenyl)((R)-1-azaspiro[4.4]nonan-2-yl)-methanol], the Emax at 10 µM was greater than 75%.
With `CNC(=O)N1CCC[C@@H](CC(C)(C)NC[C@H](O)c2cccc(F)c2)C1` [Compound 3, (S)-3-(2-(((R)-2-(3-fluorophenyl)-2-hydroxy-ethyl)amino)-2-methyl-propyl)-N-methylpiperidine-1-carboxamide], the Emax at 10 µM is greater than 75%.
Same read-out and setting: in the case of `CCC[C@@H](C)NC[C@H](O)c1cccc(O)c1` [Compound 69, 3-((R)-1-hydroxy-2-(((R)-pentan-2-yl)amino)ethyl)-phenol] it was greater than 75%; in that of `CC(C)(C[C@H]1CC[C@H](NS(C)(=O)=O)CC1)NC[C@H](O)c1ccc(F)c(N)c1F` [Compound 23, N-((trans)-4-(2-(((R)-2-(3-amino-2,4-difluorophenyl)-2-hydroxyethyl)amino)-2-methylpropyl)cyclohexyl)-methanesulfonamide], greater than 75%.
With `CC(C)(C[C@H]1CC[C@H](NS(=O)(=O)C(F)(F)F)CC1)NC[C@H](O)c1cccc(F)c1` [Compound 30, 1,1,1-trifluoro-N-((trans)-4-(2-(((R)-2-(3-fluorophenyl)-2-hydroxyethyl)amino)-2-methylpropyl)cyclohexyl)-methanesulfonamide], the Emax at 10 µM was greater than 75%.
For `CCC[C@@H](C)NC[C@H](O)c1cccc(F)c1` [Compound 66, (R)-1-(3-fluorophenyl)-2-(((R)-pentan-2-yl)amino)-ethan-1-ol], the Emax at 10 µM is greater than 75%.
As for `CC(C)(C[C@H]1CC[C@H](NC(=O)C(F)(F)F)CC1)NC[C@H](O)c1cccc(F)c1` [Compound 33, 2,2,2-trifluoro-N-((1R,4r)-4-(2-(((R)-2-(3-fluorophenyl)-2-hydroxyethyl)amino)-2-methylpropyl)cyclohexyl)-acetamide], the Emax at 10 µM is greater than 75%.
Turning to `O[C@H](c1cccc(F)c1)[C@H]1CC[C@@H](Cc2ccc(Cl)cc2)N1` [Compound 42, (R)-((2R,5S)-5-(4-chloro-benzyl)pyrrolidin-2-yl)(3-fluorophenyl)methanol], the Emax at 10 µM is greater than 75%.
On the same count and under the same terms, in the case of `CC(C)(CC[C@H]1CC[C@@H](O)CC1)NC[C@H](O)c1ccccc1F` [Compound 50, (cis)-4-(3-(((R)-2-(2-fluoro-phenyl)-2-hydroxyethyl)-amino)-3-methylbutyl)-cyclohexan-1-ol] it was 50 to 75%; in that of `CS(=O)(=O)N[C@H]1CC[C@H](C[C@@H]2CC[C@H]([C@H](O)c3cccc(F)c3)N2)CC1` [Compound 24, N-((trans)-4-(((2S,5R)-5-((R)-(3-fluorophenyl)-(hydroxy)methyl)pyrrolidin-2-yl)methyl)cyclohexyl)-methanesulfonamide], greater than 75%; in that of `COC(=O)N1CCC[C@@H](CC(C)(C)NC[C@H](O)c2cccc(F)c2)C1` [Compound 5, methyl (S)-3-(2-(((R)-2-(3-fluorophenyl)-2-hydroxy-ethyl)amino)-2-methyl-propyl)piperidine-1-carboxylate], greater than 75%.
Turning to `CCCCNC[C@H](O)c1ccc(O)cc1` [Compound 70, (R)-4-(2-(butylamino)-1-hydroxyethyl)phenol], the Emax at 10 µM is 50 to 75%.
Still for that read-out and setting: in the case of `CCCCS(=O)(=O)N[C@H]1CC[C@H](CC(C)(C)NC[C@H](O)c2cncc(F)c2)CC1` [Compound 19, N-((trans)-4-(2-(((R)-2-(5-fluoropyridin-3-yl)-2-hydroxyethyl)amino)-2-methylpropyl)cyclohexyl)-butane-1-sulfonamide] it was greater than 75%.
Regarding `CN(C)C(=O)N1CCC[C@@H](CC(C)(C)NC[C@H](O)c2cccc(F)c2)C1` [Compound 4, (S)-3-(2-(((R)-2-(3-fluoro-phenyl)-2-hydroxyethyl)-amino)-2-methylpropyl)-N,N-dimethylpiperidine-1-carboxamide], the Emax at 10 µM is greater than 75%.
On to `CC(C)(C)NC[C@H](O)c1cccc(F)c1F` [Compound 65, (R)-2-(tert-butylamino)-1-(2,3-difluorophenyl)ethan-1-ol], for which the Emax at 10 µM is greater than 75%.
For `CC(C)(NC[C@H](O)c1cccc(F)c1)[C@H]1CC[C@H](NC(=O)c2ccccc2)CC1` [Compound 44, N-((trans)-4-(2-(((R)-2-(3-fluorophenyl)-2-hydroxy-ethyl)amino)propan-2-yl)-cyclohexyl)benzamide], the Emax at 10 µM was greater than 75%.
Consider `CN(C)C(=O)N1CCC[C@@H](CC(C)(C)NC[C@H](O)c2cncc(F)c2)C1` [Compound 2, (S)-3-(2-(((R)-2-(5-fluoro-pyridin-3-yl)-2-hydroxy-ethyl)amino)-2-methyl-propyl)-N,N-dimethyl-piperidine-1-carboxamide], for which the Emax at 10 µM was 50 to 75%.
In the case of `CO[C@H]1CC[C@H](C(C)(C)NC[C@H](O)c2cccc(F)c2)CC1` [Compound 54, (R)-1-(3-fluorophenyl)-2-((2-((trans)-4-methoxycyclo-hexyl)propan-2-yl)amino)-ethan-1-ol], the Emax at 10 µM is 50 to 75%.
In the case of `CO[C@H]1CC[C@H](CC[C@@H]2CC[C@H]([C@H](O)c3cccc(F)c3)N2)CC1` [Compound 39, (R)-(3-fluorophenyl)((2R,5R)-5-(2-((tranbs)-4-methoxy-cyclohexyl)ethyl)pyrrolidin-2-yl)methanol], the Emax at 10 µM is greater than 75%.
As to `CO[C@H]1CC[C@H](C[C@@H]2CC[C@H]([C@H](O)c3ccccc3F)N2)CC1` [Compound 49, (R)-(2-fluorophenyl)((2R,5S)-5-(((trans)-4-methoxycyclo-hexyl)methyl)pyrrolidin-2-yl)-methanol], the Emax at 10 µM lay in the range of 50 to 75%.
For the compound `CC(=O)N[C@H]1CC[C@@H](C[C@@H]2CC[C@H]([C@H](O)c3cccc(F)c3F)N2)CC1` [Compound 1, N-((cis)-4-(((2S,5R)-5-((R)-(2,3-difluorophenyl)-(hydroxy)methyl)pyrrolidin-2-yl)methyl)cyclohexyl)-acetamide], the Emax at 10 µM was greater than 75%.
On the same count and under the same terms, in the case of `CC(C)(C[C@H]1CC[C@H](NS(=O)(=O)C(F)(F)F)CC1)NC[C@H](O)c1cncc(F)c1` [Compound 11, 1,1,1-trifluoro-N-((1R,4r)-4-(2-(((R)-2-(5-fluoropyridin-3-yl)-2-hydroxyethyl)amino)-2-methylpropyl)cyclohexyl)-methanesulfonamide] it was greater than 75%; in that of `COC(=O)[C@H]1CC[C@H](CCC(C)(C)NC[C@H](O)c2cncc(F)c2)CC1` [Compound 47, methyl (trans)-4-(3-(((R)-2-(5-fluoropyridin-3-yl)-2-hydroxyethyl)amino)-3-methylbutyl)cyclohexane-1-carboxylate], 50 to 75%.
On to `CC(C)(C[C@@H]1CCCN(C(=O)C(F)(F)F)C1)NC[C@H](O)c1cccc(F)c1` [Compound 9, 2,2,2-trifluoro-1-((S)-3-(2-(((R)-2-(3-fluorophenyl)-2-hydroxyethyl)amino)-2-methylpropyl)piperidin-1-yl)-ethan-1-one], for which the Emax at 10 µM was in the range of 50 to 75%.
Still for that read-out and setting: in the case of `CCOCC12CCC([C@H](O)c3cncc(F)c3)(CC1)N2` [Compound 38, (R)-(4-(ethoxymethyl)-7-azabicyclo[2.2.1]heptan-1-yl)(5-fluoropyridin-3-yl) methanol] it was 50 to 75%.
Turning to `CCS(=O)(=O)N[C@H]1CC[C@H](CC(C)(C)NC[C@H](O)c2cccc(F)c2)CC1` [Compound 17, N-((trans)-4-(2-(((R)-2-(3-fluorophenyl)-2-ethyl)amino)-2-methylpropyl)cyclohexyl)-ethanesulfonamide], the Emax at 10 µM was greater than 75%.
For the compound `CCCS(=O)(=O)N[C@H]1CC[C@H](CC(C)(C)NC[C@H](O)c2cccc(F)c2)CC1` [Compound 31, N-((trans)-4-(2-(((R)-2-(3-fluorophenyl)-2-hydroxy-ethyl)amino)-2-methyl-propyl)cyclohexyl)propane-1-sulfonamide], the Emax at 10 µM is greater than 75%.
For `CCCCS(=O)(=O)N[C@H]1CC[C@H](CC(C)(C)NC[C@H](O)c2cccc(F)c2)CC1` [Compound 13], the Emax at 10 µM was greater than 75%.
`CC(C)(C)[C@H]1CC[C@H]([C@H](O)c2cccc(F)c2)N1` [Compound 57, (R)-((2R,5R)-5-(tert-butyl)-pyrrolidin-2-yl)(3-fluoro-phenyl)methanol]: the Emax at 10 µM lay in the range of 50 to 75%.
On the same count and under the same terms, in the case of `CCS(=O)(=O)N[C@H]1CC[C@H](CC(C)(C)NC[C@H](O)c2cncc(F)c2)CC1` [Compound 21, N-((trans)-4-(2-(((R)-2-(5-fluoropyridin-3-yl)-2-hydroxyethyl)amino)-2-methylpropyl)cyclohexyl)-ethanesulfonamide] it was greater than 75%.

For the origin of these results see US20250262170A1, “COMBINATIONS OF BETA 2-ADRENERGIC RECEPTOR AGONISTS AND BETA 3-ADRENERGIC RECEPTOR AGONISTS, AND MEDICAL USES THEREOF” (ATROGI AB, priority 2022, published 2025).
